Reference: paper PMC10527924 (Toxicology in vitro : an international journal published in …, 2023)
Where two headings read alike, the source gives them in different places.

How the values were obtained:
[1] = 0.61 nmol/μL
[2] = tested on: EpiDerm-200-X reconstructed human epidermis (RhE)
excised human skin (EHS) = details: female, 0.61 nmol/μL
[3] = not measured for this paper; no reference given; cited from earlier work
[4] = tested on: EpiDerm-200-X reconstructed human epidermis (RhE); test: In vitro permeation testing; details: 5 mm orifice Franz cell, finite dose 6 nmol/cm^2

Compound	time of peak flux [1]	6 h Cumulative Permeation ([1]; 6 h)	vehicle effect on 6 h cumulative permeation [2]	time of mean peak flux ([2]; human, 0.61 nmol/μL)	6 h Cumulative Permeation ([2]; human, 0.61 nmol/μL)	6 h Cumulative Permeation (excised human skin (EHS))	Log Kow (n-octanol-water partition coefficient) [3]	time of mean peak flux [4]
Cn1c(=O)c2c(ncn2C)n(C)c1=O [caffeine]	2 h	0.43 ± 0.03 nmol/cm^2	statistically significant decrease	3 h	3.32 ± 0.33 nmol/cm^2	0.97 ± 0.22 nmol/cm^2	−0.07	–
O=C(O)c1ccccc1O [salicylic acid]	–	–	did not alter its permeation	–	0.32 ± 0.05 nmol/cm^2	0.18 ± 0.10 nmol/cm^2	2.26	–
C[C@]12CC[C@H]3[C@@H](CCC4=CC(=O)CC[C@@]43C)[C@@H]1CC[C@@H]2O [testosterone]	–	–	–	–	–	–	–	2 h
